Publication PMC3517300 (Journal of neurochemistry, 2012)

Experiments:
[1] = biological target: human dopamine transporter (DAT WT) (Homo sapiens, UniProt Q01959); test: AMPH-induced DA efflux by RDEV, HEK 293-hDAT; assay type: cell-based; settings: for effect on corrected efflux Vmax / effect on Km and Vmax of AMPH-induced DA efflux (RDEV): WT; for effect on corrected efflux Vmax: repletion with 200 µM sterol after 5.0 mM mβCD, or 25 µg/ml nystatin; for effect on Km and Vmax of AMPH-induced DA efflux (RDEV): 5.0 mM mβCD or 25 µg/ml nystatin, 10 µM AMPH
[2] = tested on: DAT in lipid rafts of HEK-293 hDAT cells; test: Sucrose density fractionation, DAT association with lipid rafts; assay type: cell-based, human; settings: 1% Brij; depletion/chelation or repletion of mβCD depleted cells
[3] = tested on: cholesterol-depleted HuH7 hepatoma cells or hippocampal membranes; settings: within 1 hr; ref Vainio et al. 2006; Singh et al. 2009; cited from earlier work
[4] = tested on: hDAT surface expression in HEK-293 cells; test: Surface biotinylation and immunoblot of DAT; assay type: cell-based, human; settings: treatment with mβCD, nystatin, or repletion with cholesterol or desmosterol
[5] = biological target: human DAT (LLC-PK-hDAT cells) (Homo sapiens, UniProt Q01959); test: AMPH-induced [^3H]DA efflux in LLC-PK-hDAT cells; assay type: cell-based
DAT = settings: raft-enriched fractions vs whole cells; ref Foster et al. 2008; cited from earlier work
W84L DAT mutant [6] = biological target: T1, W84L DAT mutant (Homo sapiens, UniProt Q01959, W84L); test: AMPH-induced DA efflux by RDEV, W84L hDAT-HEK 293 cells; assay type: cell-based; settings: for effect on AMPH-induced DA efflux Km, Vmax (RDEV): 2.5 mM mβCD or 25 µg/ml nystatin, 10 µM AMPH
T1 sequence (Q01959 1-620 W84L): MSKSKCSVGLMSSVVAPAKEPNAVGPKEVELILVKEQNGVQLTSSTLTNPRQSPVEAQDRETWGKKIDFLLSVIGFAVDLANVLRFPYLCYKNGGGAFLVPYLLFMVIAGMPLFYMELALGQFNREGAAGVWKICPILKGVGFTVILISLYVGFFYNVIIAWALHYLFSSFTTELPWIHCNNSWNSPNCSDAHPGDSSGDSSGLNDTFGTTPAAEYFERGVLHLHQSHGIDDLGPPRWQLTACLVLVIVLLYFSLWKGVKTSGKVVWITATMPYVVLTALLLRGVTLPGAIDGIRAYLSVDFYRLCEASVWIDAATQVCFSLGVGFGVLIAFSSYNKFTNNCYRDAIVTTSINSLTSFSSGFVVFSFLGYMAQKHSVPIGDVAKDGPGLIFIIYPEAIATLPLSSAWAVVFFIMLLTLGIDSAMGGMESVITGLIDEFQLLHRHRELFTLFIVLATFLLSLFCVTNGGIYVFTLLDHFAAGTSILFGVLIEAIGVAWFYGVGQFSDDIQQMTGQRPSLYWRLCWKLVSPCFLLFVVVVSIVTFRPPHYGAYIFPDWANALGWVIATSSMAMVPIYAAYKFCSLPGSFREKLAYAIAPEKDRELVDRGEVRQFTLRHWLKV

W84L DAT mutant [7] = biological target: T1, W84L DAT mutant; test: DA uptake by RDEV, W84L hDAT-HEK 293 cells; assay type: cell-based; settings: 2.5 mM mβCD or 25 µg/ml nystatin
[8] = tested on: unesterified cholesterol in HEK 293-hDAT cells; test: Cholesterol quantification; assay type: cell-based, human; settings: for reduction of cholesterol content compared with untreated cells: 30 min, 37°C

Chain of human dopamine transporter (DAT WT) (Q01959 whole entry): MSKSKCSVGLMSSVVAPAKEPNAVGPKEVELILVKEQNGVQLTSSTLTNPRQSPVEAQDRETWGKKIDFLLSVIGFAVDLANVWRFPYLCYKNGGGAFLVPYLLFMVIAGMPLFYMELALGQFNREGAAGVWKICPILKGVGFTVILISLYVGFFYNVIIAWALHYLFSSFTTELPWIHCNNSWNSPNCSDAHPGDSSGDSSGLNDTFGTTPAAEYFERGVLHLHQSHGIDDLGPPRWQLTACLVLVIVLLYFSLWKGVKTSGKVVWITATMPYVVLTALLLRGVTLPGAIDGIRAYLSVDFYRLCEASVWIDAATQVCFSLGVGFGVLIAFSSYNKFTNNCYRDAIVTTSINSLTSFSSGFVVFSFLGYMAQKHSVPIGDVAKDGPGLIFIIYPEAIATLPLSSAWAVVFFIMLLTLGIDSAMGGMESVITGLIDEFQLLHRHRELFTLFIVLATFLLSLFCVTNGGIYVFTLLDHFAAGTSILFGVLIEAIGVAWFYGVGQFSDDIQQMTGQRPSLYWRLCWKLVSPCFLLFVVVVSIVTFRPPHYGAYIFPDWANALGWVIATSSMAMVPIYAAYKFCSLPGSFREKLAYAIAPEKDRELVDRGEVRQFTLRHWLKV
Chain of human DAT (LLC-PK-hDAT cells) (Q01959 whole entry): as above

| Compound | effect on corrected efflux Vmax [1] | DAT distribution across sucrose gradient fractions (raft association) [2] | changes in levels of DAT (total lysates and biotinylated surface fraction) [4] | effect on AMPH-induced DA efflux Km, Vmax (RDEV) (W84L DAT mutant [6]) | effect on Km and Vmax of AMPH-induced DA efflux (RDEV) [1] | effect on DA uptake Vmax and Km (RDEV) (W84L DAT mutant [7]) | also measured |
| --- | --- | --- | --- | --- | --- | --- | --- |
| CC(C)=CCC[C@@H](C)[C@H]1CC[C@H]2[C@@H]3CC=C4C[C@@H](O)CC[C@]4(C)[C@H]3CC[C@]12C [desmosterol] | indistinguishable from control values | inefficient at restoring rafts | no significant changes |  |  |  | increase in cholesterol after replenishment with desmosterol [3]: ≤ 10% |
| C[C@H](N)Cc1ccccc1 [AMPH, dextroamphetamine] |  |  |  |  |  |  | [^3H]DA efflux over basal efflux ([5]; 10 µM AMPH, control cells, 5 min, 25°C): ~ 144% |
| NCCc1ccc(O)c(O)c1 [DA, dopamine] |  |  |  |  |  |  | IC50 of DA competing for [^3H]CFT binding, rafts vs whole cells (DAT): two-fold higher |
| C[C@@H]1[C@H](O)[C@@H](C)/C=C/C=C/CC/C=C/C=C/C=C/C=C/C(O[C@H]2O[C@H](C)[C@@H](O)[C@H](N)[C@@H]2O)CC2O[C@](O)(CC(O)C(O)CCC(O)CC(O)CC(O)CC(=O)O[C@H]1C)CC(O)C2C(=O)O (some centres unmarked) [nystatin] | no significant change | significant shift of DAT out of raft fractions 3–4 into denser fractions 7 and up | no significant changes | did not affect | no effect | did not significantly change Vmax or Km | AMPH-induced [^3H]DA efflux over basal levels ([5]; nystatin treated cells, 10 µM AMPH): 150%; change of overall content of cholesterol ([8]; 25 µg/ml): did not change |
| methyl-β-cyclodextrin [mβCD] |  | significant shift of DAT out of raft fractions 3–4 into denser fractions 7 and up | no significant changes | partial rescue of efflux Vmax | large reduction | enhanced uptake Vmax without altering Km | effect on Vmax ratio (incorporating the uptake correction) (W84L DAT mutant [6]; 2.5 mM mβCD): rescued to that of DAT WT control; AMPH-induced [^3H]DA efflux over basal levels ([5]; 2.5 mM mβCD, 10 µM AMPH): 122%; AMPH-induced [^3H]DA efflux over basal levels ([5]; 5.0 mM mβCD, 10 µM AMPH): 115%; loss in efflux function ([5]; 2.5 and 5.0 mM mβCD): ~ 20%; reduction in reverse transport (corrected efflux Vmax) ([1]; 5.0 mM mβCD vs control, 37°C): ~ 40%; reduction of cholesterol content compared with untreated cells ([8]; 2.5 mM): 39%; reduction of cholesterol content compared with untreated cells ([8]; 5.0 mM): 63% |
| CC(C)CCC[C@@H](C)[C@H]1CC[C@H]2[C@@H]3CC=C4C[C@@H](O)CC[C@]4(C)[C@H]3CC[C@]12C [cholesterol] | indistinguishable from control values | restored DAT association with low buoyant density fractions | no significant changes |  |  |  |  |
